Data as given in patent publication US12258571B2, “Methods and compositions for inducible expression of neurotrophic factors” (CEDARS-SINAI MEDICAL CENTER, priority 2018, dated 2025).
“And” between values parts separate entries of the source, which are not always exact repeats. Equal values may be shown once.

Tests used:
TRE-Bi promoter [1] = assay: Dual-luciferase assay in nucleofected iNPCs; type: cell-based, human; conditions: 24-hour dox treatment; iNPCs nucleofected with pB-RTP-Tet-GDNF/memClover-FLuc, pBase and Ef1-Renilla
Description: In all experiments, dox solution was maintained in light protection and 4° C. For cell culture, dox (Clontech 631311) was added to culture media at 100 ng/ml. For in vivo work, animals were administered dox (15 μg dox/g weight) every 3-4 days by oral gavage (e.g. 60 μl for a 20 g animal), using a soft-tipped feeding needle (Instech FTP-20-30; Plymouth Meeting, PA) attached to a 1 ml syringe (BD 309659; Franklin Lakes, NJ). To quantitatively assess reporter expression from the TRE-Bi promoter, iNPCs were nucleofected as above, along with an Ef1-Renilla plasmid that constitutively expresses Renilla luciferase for protein normalization. […] To assess the kinetics of the TRE-Bi inducible promoter, firefly luciferase activity was quantified in a live culture of the nucleofected iNPCs grown in the presence of beetle luciferin (FIG. 1F). […] As a clinically-relevant cell product would need to be expanded and banked, the Inventors assessed if the TRE-Bi promoter would remain functionally responsive with an extensive cell expansion and freeze.

TRE-Bi promoter [2] = assay: Flow analysis of GFP induction after extensive cell expansion and freeze; type: cell-based, human; conditions: 24 hours after adding dox; cells 6 months in culture after nucleofection, two freeze/thaw cycles
Description: FIG. 5. IPSC-derived NPCs nucleofected with pB-RTP-Tet-GDNF/memClover-FLuc retain their ability to be induced upon the addition of dox. 83% of BF^+ cells were also GFP^+ (P5 Gate) 24 hours after adding dox to cells that were grown in culture for 6 months after nucleofection. Note: Cells were also exposed to two freeze/thaw cycles and were frozen for a total of 10 months during this period.
To quantitatively assess reporter expression from the TRE-Bi promoter, iNPCs were nucleofected as above, along with an Ef1-Renilla plasmid that constitutively expresses Renilla luciferase for protein normalization. […] To assess the kinetics of the TRE-Bi inducible promoter, firefly luciferase activity was quantified in a live culture of the nucleofected iNPCs grown in the presence of beetle luciferin (FIG. 1F). […] As a clinically-relevant cell product would need to be expanded and banked, the Inventors assessed if the TRE-Bi promoter would remain functionally responsive with an extensive cell expansion and freeze.

GDNF = assay: Blinded postmortem GDNF scoring (DAB stain) of transplanted tissue; type: in vivo, NOD-SCID mice; parameters: key: (−) no positive staining; (+) slight staining; (++) moderate staining; (+++) extensive staining; conditions: one line per animal; for GDNF Str/CC: striatum/corpus callosum
Description: In all experiments, dox solution was maintained in light protection and 4° C. For cell culture, dox (Clontech 631311) was added to culture media at 100 ng/ml. For in vivo work, animals were administered dox (15 μg dox/g weight) every 3-4 days by oral gavage (e.g. 60 μl for a 20 g animal), using a soft-tipped feeding needle (Instech FTP-20-30; Plymouth Meeting, PA) attached to a 1 ml syringe (BD 309659; Franklin Lakes, NJ). Nucleofected iNPCs, which underwent two rounds of FACS for BFP, were transplanted into the striatum (41 of cells at 100,000 cells/μ1 into each hemisphere) of 6-month old NOD-SCID mice (Nod.cb17-Prkdc^scid/J, Jackson Lab #1303; Bar Harbor, ME). Three days before transplantation, a subset of cells was treated with dox. For transplantation, cells were dissociated and diluted to a final concentration of 100,000 cells/μl in conditioned media, and maintained on ice. Animals were anesthetized with isoflurane and placed in a stereotaxic frame. Cells were injected bilaterally relative to bregma at 0.7 mm rostral and +/−2.0 mm lateral. A 5 μl Hamilton microsyringe backfilled with PBS was loaded with 2 μl of cell solution and inserted to a depth of −4.00 mm. The microsyringe was then raised to −3.50 mm and the cell solution was injected at 1 μl/min. After cell injection, the microsyringe was raised to −3.00 mm, held for 2 minutes and slowly withdrawn. Animals were checked daily. Immunostained sections were photographed using a Leica DM200 LED microscope. Images were scored based on stain intensity of DAB GDNF stain by an observer blinded to the experiment conditions (dox vs no dox). Finally, DAB staining, which provides a high sensitivity of protein detection and has effectively tracked human GDNF-expressing NPC transplants, was used to determine the levels and location of GDNF expression.

[3] = animals that ended trial OFF dox (dox withdrawn)
[4] = animals that ended trial ON dox

## C[C@H]1c2cccc(O)c2C(=O)C2=C(O)[C@]3(O)C(=O)C(C(N)=O)=C(O)[C@@H](N(C)C)[C@@H]3[C@@H](O)[C@@H]21 [dox, doxycycline]
TRE-Bi promoter [1]
  increase in firefly luciferase activity (normalized to Renilla): ~1300 fold
TRE-Bi promoter [2]
  BFP+ cells induced to express GFP: 83%
GDNF; [3]
  GDNF Meninges: −
  GDNF Str/CC: −
GDNF; [4]
  GDNF Meninges: +++ and − (3×) and + (2×) and ++
  GDNF Str/CC: − (3×) and ++ (3×) and +
